Our source for the IC50 values is patent US20070032477A1, “Pteridine derivatives useful for making pharmaceutical compositions” (priority 2003, published 2007).

The test system of test [1] is mixed lymphocyte reaction (PBMC with allogeneic PBMC or Eppstein-Barr Virus-transformed human B cells as stimulator cells). The experiment in a line: Mixed lymphocyte reaction (MLR) assay. It counts as cell-based. The following applies: lowest concentration giving 50% suppression of the MLR; [3H]-thymidine. On the procedure:
Pteridine derivatives were first dissolved (10 mM) in dimethylsulfoxide (hereinafter referred as DMSO) and further diluted in culture medium before use for the following in vitro experiments. The commercially available culture medium consisted of RPMI-1640+10% foetal calf serum (FCS). Some pteridine derivatives described in the previous examples (as indicated in table 1) were tested in the following mixed lymphocyte reaction (MLR) assay.
Peripheral blood mononuclear cells (hereinafter referred as PBMC) were isolated from heparinized peripheral blood by density gradient centrifugation over Lymphoprep (Nycomed, Maorstua, Norway). Allogeneic PBMC or Eppstein-Barr Virus-transformed human B cells [commercially available under the trade name RPM11788 (ATCC name CCL156)] which strongly express B7-1 and B7-2 antigens were used as stimulator cells after irradiation with 30 Gy. MLR was performed in triplicate wells. After 5 days incubation at 37° C., 1 μCi [^3H]-thymidine was added to each cup. After a further 16 hours incubation, cells were harvested and counted in a […]. Inhibition of proliferation by a compound (drug) described in some of the previous examples was counted using the formula: [formula] wherein cpm is the thymidine count per minute. The MLR assay is regarded by those skilled in the art as an in vitro analogue of the transplant rejection since it is based on the recognition of allogeneic major histocompatibility antigens on the stimulator leukocytes, by responding lymphocytes.

In test [2] the test system is production of TNF-α by PBMC in response to stimulation by LPS. The experiment in a line: TNF-α assay. It counts as cell-based, human. The following applies: LPS 1 μg/ml, 72 hours, sandwich ELISA. On the procedure:
Peripheral blood mononuclear cells (herein referred as PBMC), in response to stimulation by lipopolysaccharide (hereinafter LPS), a gram-negative bacterial endotoxin, produce various […], in particular human TNF-α. Inhibition of the activation of PBMC can therefore be measured by the level of suppression of the production of TNF-α by PBMC in response to stimulation by LPS.
Such inhibition measurement was performed as follows: PBMC were isolated from heparinized peripheral blood by density gradient centrifugation over Lymphoprep (commercially available from Nycomed, Norway). LPS was then added to the PMBC suspension in complete medium (10^6 cells/ml) at a final concentration of 1 μg/ml. The pteridine derivative to be tested was added at different concentrations (0.1 μM, 1 μM and 10 μM) and the cells were incubated at 37° C. for 72 hours in 5% CO2. The supernatants were collected, then TNF-α concentrations were measured with respectively an anti-TNF-α antibody in a sandwich ELISA (Duo Set ELISA human TNFα, commercially available from R&D Systems, United Kingdom). The calorimetric reading of the ELISA was measured by a Multiskan RC plate reader (commercially available from ThermoLabsystems, Finland) at 450 nm (reference wavelength: 690 nm). Data analysis was performed with Ascent software 2.6. (also from ThermoLabsystems, Finland): a standard curve (recombinant human TNFα) was drawn and the amount (pg/ml) of each sample on the standard curve was determined.
The % suppression of human TNFα production by the pteridine derivatives of the invention (drugs) was calculated using the formula: [formula]

With `COc1ccc(-c2cnc3nc(N)nc(N4CCN(C(=O)Nc5cccc(C(F)(F)F)c5)CC4)c3n2)cc1OC` [Example 195, 2-amino-4-(N-3-trifluoromethyl-phenyl-carbamoyl-piperazin-1-yl)-6-(3,4-dimethoxyphenyl)pteridine], the IC50 was determined as 36 nM in test [1] and 700 nM in test [2].
For `COc1ccc(-c2cnc3nc(N)nc(N4CCN(C(=O)Nc5ccccc5)CC4)c3n2)cc1OC` [Example 99, 2-amino-4-(N-phenyl-carbamoyl-piperazin-1-yl)-6-(3,4-dimethoxyphenyl)pteridine] the same measures were 3.4 nM and 90 nM.
With `COc1ccc(-c2cnc3nc(N)nc(N4CCN(C(=O)Cc5ccc(Cl)cc5)CC4)c3n2)cc1OC` [Example 45, 2-amino-4-[N-(4-chlorophenylacetyl)-piperazin-1-yl]-6-(3,4-dimethoxy-phenyl)pteridine], the IC50 stood at 90 nM in test [1] and 400 nM in test [2].
On to `COc1ccc(-c2cnc3nc(N)nc(N4CCN(C(=O)c5cccs5)CC4)c3n2)cc1OC` [Example 13, 2-amino-4-[(N-2-thiophenecarbonyl)-piperazin-1-yl]-6-(3,4-dimethoxy-phenyl)pteridine], for which the IC50 in test [1] was 100 nM; in test [2], 80 nM.
On the same counts, the results for `COc1ccc(-c2cnc3nc(N)nc(N4CCN(C(=O)c5ccccc5)CC4)c3n2)cc1OC` [Example 11, 2-amino-4-(N-benzoylpiperazin-1-yl)-6-(3,4-dimethoxyphenyl)pteridine] are 400 nM and 400 nM.
Regarding `COc1ccc(-c2cnc3nc(N)nc(N4CCN(c5ccc([N+](=O)[O-])cc5C(F)(F)F)CC4)c3n2)cc1OC` [Example 186, 2-amino-4-[2-trifluoromethyl-4-nitro-phenyl-piperazin-1-yl)-6-(3,4-dimethoxyphenyl)pteridine], the figures for the IC50 in test [1] and in test [2] were 5000 nM and 400 nM, respectively.
On the same counts, the results for `COc1ccc(-c2cnc3nc(N)nc(N4CCN(Cc5c(Cl)cccc5Cl)CC4)c3n2)cc1OC` [Example 137, 2-amino-4-[(2,6-dichlorobenzyl)piperazin-1-yl]-6-(3,4-dimethoxyphenyl)pteridine] are 7600 nM and 700 nM.
On the same counts, the results for `CCCCc1ccc(C(=O)N2CCN(c3nc(N)nc4ncc(-c5ccc(OC)c(OC)c5)nc34)CC2)cc1` [Example 18, 2-amino-4-[(N-4-butylbenzoyl)-piperazin-1-yl]-6-(3,4-dimethoxyphenyl)pteridine] are 300 nM and 90 nM.
On the same counts, the results for `COc1ccc(-c2cnc3nc(N)nc(N4CCN(CCN5CCOCC5)CC4)c3n2)cc1OC` [Example 129, 2-amino-4-(1-(2-morpholino4-yl-ethyl)-piperazino)-6-(3,4-dimethoxyphenyl)pteridine] are 2500 nM and 800 nM.
As to `COc1ccc(-c2cnc3nc(N)nc(N4CCN(C(=O)Oc5ccc(Cl)cc5)CC4)c3n2)cc1OC` [Example 94], the IC50 in test [1] was determined as 100 nM; in test [2], 90 nM.
On the same counts, the results for `COc1ccc(-c2cnc3nc(N)nc(N4CCN(C(=O)NCc5ccc(F)cc5)CC4)c3n2)cc1OC` [Example 105, 2-amino-4-(N-4-fluorobenzylcarbamoyl-piperazin-1-yl)-6-(3,4-dimethoxyphenyl)pteridine] are 37 nM and 700 nM.
On the same counts, the results for `COc1ccc(-c2cnc3nc(N)nc(N4CCN(CC(C)C)CC4)c3n2)cc1OC` [Example 168, 2-amino-6-(3,4-dimethoxyphenyl)-4-(1-isobutyl-piperazin-1-yl)pteridine] are 1600 nM and 90 nM.
On the same counts, the results for `COc1ccc(-c2cnc3nc(N)nc(N4CCN(Cc5ccccc5F)CC4)c3n2)cc1OC` [Example 141, 2-amino-4-((2-fluorobenzyl)piperazin-1-yl)-6-(3,4-dimethoxyphenyl)pteridine] are 700 nM and 200 nM.
For the compound `COc1ccc(-c2cnc3nc(N)nc(N4CCCN(C(=O)COc5ccccc5)CC4)c3n2)cc1OC` [Example 89], the IC50 in test [1] turned out to be 87 nM; in test [2], 1200 nM.
For `COc1ccc(-c2cnc3nc(N)nc(N4CCN(S(=O)(=O)c5ccccc5)CC4)c3n2)cc1OC` [Example 31, 2-amino-4-[(N-phenylsulfonyl)-piperazin-1-yl]-6-(3,4-dimethoxy-phenyl)pteridine] the same measures were 3000 nM and 500 nM.
For `COc1ccc(-c2cnc3nc(N)nc(N4CCN(C(=O)OCc5ccccc5)CC4)c3n2)cc1OC` [Example 48, 2-amino-4-[(N-benzyloxycarbonyl)-piperazin-1-yl]-6-(3,4-dimethoxy-phenyl)pteridine] the same measures were 300 nM and 80 nM.
On the same counts, the results for `COc1ccc(-c2cnc3nc(N)nc(N4CCN(S(=O)(=O)Cc5ccccc5)CC4)c3n2)cc1OC` [Example 43, 2-amino-4-[(N-benzylsulfonyl)-piperazin-1-yl]-6-(3,4-dimethoxyphenyl)pteridine] are 200 nM and 700 nM.
As to `COc1ccc(-c2cnc3nc(N)nc(N4CCN(C(=O)c5ccco5)CC4)c3n2)cc1OC` [Example 27, 2-amino-4-[N-(2-furoyl)-piperazin-1-yl]-6-(3,4-dimethoxyphenyl)pteridine], the IC50 in test [1] was 80 nM; in test [2], 500 nM.
For `COc1ccc(-c2cnc3nc(N)nc(N4CCN(c5ccc(C(F)(F)F)cc5[N+](=O)[O-])CC4)c3n2)cc1OC` [Example 185, 2-amino-4-[4-trifluoromethyl-2-nitro-phenyl-piperazin-1-yl)-6-(3,4-dimethoxyphenyl)pteridine] the same measures were 1900 nM and 500 nM.
Regarding `CCN(CC)C(=O)N1CCN(c2nc(N)nc3ncc(-c4ccc(OC)c(OC)c4)nc23)CC1` [Example 14, 2-amino-4-[(N-diethylcarbamoyl)-piperazin-1-yl]-6-(3,4-dimethoxy-phenyl)pteridine], the results for the IC50 in test [1] and in test [2] were 200 nM and 60 nM, respectively.
Regarding `COc1ccc(-c2cnc3nc(N)nc(N4CCN(CCC#N)CC4)c3n2)cc1OC` [Example 163, 2-amino-6-(3,4-dimethoxyphenyl)-4-(4-(3-propionitril)-piperazin-1-yl)pteridine], the 50% inhibitory concentration (IC50) in test [1] and in test [2] was 500 nM throughout.
As to `COc1ccc(-c2cnc3nc(N)nc(N4CCN(C(=O)Nc5cccc(C)c5)CC4)c3n2)cc1OC` [Example 103, 2-amino-4-(N-3-methylphenylcarbamoyl-piperazin-1-yl)-6-(3,4-dimethoxyphenyl)pteridine], the IC50 was found to be 6.5 nM in test [1] and 100 nM in test [2].
Take `COc1ccc(-c2cnc3nc(N)nc(N4CCN(C(=O)N(C)c5ccc(C)cc5)CC4)c3n2)cc1OC` [Example 119, 2-amino-4-(N-methyl-N-tolyl-carbamoyl-piperazin-1-yl)-6-(3,4-dimethoxyphenyl)pteridine]: the IC50 came out at 300 nM in test [1] and 260 nM in test [2].
As for `COc1ccc(-c2cnc3nc(N)nc(N4CCN(C(=O)CN5CCOCC5)CC4)c3n2)cc1OC` [Example 130, 2-amino-4-(4-[2-(piperazin-1-yl)-acetyl]-morpholino)-6-(3,4-dimethoxy-phenyl)pteridine], the IC50 in test [1] is 1500 nM; in test [2] it was 1400 nM.
`COc1ccc(-c2cnc3nc(N)nc(N4CCN(C(=O)COc5ccc(Cl)cc5)CC4)c3n2)cc1OC` [Example 29]: the results for the IC50 in test [1] and in test [2] were 0.5 nM and 77 nM, respectively.
For “2-amino-4-(1-(2-diethylaminoethyl)-piperazino)-6-(3,4-dimethoxyphenyl)pteridine [Example 127]” the same measures were 9100 nM and 2600 nM.
On to `COc1ccc(-c2cnc3nc(N)nc(N4CCN(C(=O)N(c5ccccc5)c5ccccc5)CC4)c3n2)cc1OC` [Example 39, 2-amino-4-[(N-diphenylcarbamoyl)-piperazin-1-yl]-6-(3,4-dimethoxy-phenyl)pteridine], for which the IC50 was determined as 700 nM in test [1] and 800 nM in test [2].

One may read the IC50 as the concentration that gives 50% inhibition. Low readings indicate greater potency in that assay, high ones weaker potency in that assay.
